According to patent US12448369B2 (Edgewise Therapeutics, Inc., priority 2023, dated 2025):
Like-named read-outs stand apart in the source and are kept apart here.

Legend:
[1] = target: T1, Porcine ventricle myofibrils (ventricular myosin ATPase) (Sus scrofa, UniProt P79293); assay: Myofibril ATPase assay, porcine ventricle myofibrils; assay type: biochemical, porcine (Yucatan minipigs); settings: Y75 value (no ‡ mark); porcine ventricle myofibrils
T1 construct: Myofibrils from porcine cardiac muscle was isolated from the left ventricle of Yucatan minipigs; tissue Exemplar Genetics; host or cells: left ventricle of Yucatan minipigs, myofibrils prepared in house
T1 sequence (P79293 whole entry): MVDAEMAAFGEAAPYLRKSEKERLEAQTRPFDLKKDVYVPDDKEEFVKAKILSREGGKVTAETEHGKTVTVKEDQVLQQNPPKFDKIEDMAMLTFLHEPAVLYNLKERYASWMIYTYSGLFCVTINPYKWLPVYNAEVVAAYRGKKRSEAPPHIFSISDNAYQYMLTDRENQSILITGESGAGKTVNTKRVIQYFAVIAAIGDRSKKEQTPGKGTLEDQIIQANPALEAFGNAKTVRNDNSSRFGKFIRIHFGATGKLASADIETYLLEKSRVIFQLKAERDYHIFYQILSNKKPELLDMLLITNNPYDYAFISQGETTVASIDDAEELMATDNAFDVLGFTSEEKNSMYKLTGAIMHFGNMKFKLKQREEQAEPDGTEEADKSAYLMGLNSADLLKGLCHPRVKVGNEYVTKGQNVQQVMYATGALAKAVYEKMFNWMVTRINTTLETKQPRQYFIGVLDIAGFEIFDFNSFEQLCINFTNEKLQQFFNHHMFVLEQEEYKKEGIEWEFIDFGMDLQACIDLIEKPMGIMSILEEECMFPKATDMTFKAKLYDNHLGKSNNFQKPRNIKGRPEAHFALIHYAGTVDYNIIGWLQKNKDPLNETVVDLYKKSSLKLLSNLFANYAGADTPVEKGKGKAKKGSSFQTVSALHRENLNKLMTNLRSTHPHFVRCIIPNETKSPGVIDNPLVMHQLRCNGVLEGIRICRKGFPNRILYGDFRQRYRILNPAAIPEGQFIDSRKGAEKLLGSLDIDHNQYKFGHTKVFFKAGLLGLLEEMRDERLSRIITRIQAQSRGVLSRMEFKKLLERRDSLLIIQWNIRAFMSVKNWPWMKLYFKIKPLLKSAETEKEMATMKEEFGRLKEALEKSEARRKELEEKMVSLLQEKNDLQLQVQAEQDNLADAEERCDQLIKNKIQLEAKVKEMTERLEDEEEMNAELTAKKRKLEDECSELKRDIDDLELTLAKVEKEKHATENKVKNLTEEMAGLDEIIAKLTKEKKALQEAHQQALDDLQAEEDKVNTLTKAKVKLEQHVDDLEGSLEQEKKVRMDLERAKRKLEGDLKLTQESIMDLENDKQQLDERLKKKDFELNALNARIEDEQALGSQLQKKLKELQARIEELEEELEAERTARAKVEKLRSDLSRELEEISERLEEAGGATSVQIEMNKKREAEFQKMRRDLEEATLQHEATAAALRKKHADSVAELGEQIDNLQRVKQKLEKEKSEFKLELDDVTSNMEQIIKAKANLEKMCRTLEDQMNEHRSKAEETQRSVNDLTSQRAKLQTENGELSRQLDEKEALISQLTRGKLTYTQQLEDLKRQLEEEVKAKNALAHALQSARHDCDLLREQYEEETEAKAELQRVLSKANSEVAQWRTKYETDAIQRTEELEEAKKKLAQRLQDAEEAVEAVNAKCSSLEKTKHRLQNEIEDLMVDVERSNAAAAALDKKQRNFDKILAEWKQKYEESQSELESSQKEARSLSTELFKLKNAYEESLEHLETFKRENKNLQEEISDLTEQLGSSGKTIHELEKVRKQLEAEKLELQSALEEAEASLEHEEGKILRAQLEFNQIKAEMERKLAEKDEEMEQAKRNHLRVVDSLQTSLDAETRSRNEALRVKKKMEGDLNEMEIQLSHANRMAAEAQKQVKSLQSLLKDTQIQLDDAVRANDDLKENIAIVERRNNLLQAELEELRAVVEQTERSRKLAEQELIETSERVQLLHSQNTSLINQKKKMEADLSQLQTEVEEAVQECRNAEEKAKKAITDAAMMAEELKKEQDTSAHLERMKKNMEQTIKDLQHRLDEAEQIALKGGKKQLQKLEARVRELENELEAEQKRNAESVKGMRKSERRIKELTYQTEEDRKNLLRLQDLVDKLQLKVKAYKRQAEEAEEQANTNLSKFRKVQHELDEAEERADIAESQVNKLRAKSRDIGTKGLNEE
In short: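 Left-ventricle myofibrils from Yucatan minipigs were tested with a PK/LDH-coupled system, following NADH loss at 340 nm every 1.5-2 min for 75 min. Slopes were normalized to vehicle wells and fit to a 4-parameter logistic model; values are Y75 (25% ATPase reduction) or Y125 concentrations.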

[2] = tested on: Rabbit Psoas myofibrils (skeletal myosin ATPase); assay: Myofibril ATPase assay, rabbit psoas (skeletal) myofibrils; assay type: biochemical; settings: Y75 value (no ‡ mark); rabbit psoas myofibrils
In short: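 Myofibrils homogenized in Triton X-100 buffer were assayed in pH 7.0 PIPES with defined Ca2+/EGTA. Myosin-driven ADP formation was coupled to NADH oxidation, with depletion monitored at 340 nm. Each value is the concentration that lowers activity to 75% of vehicle or, for activators, raises it to 125%.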

[3] = tested on: SD rats; assay: Echocardiography of systolic cardiac performance (HR, FS, LV volumes, SWT) after a single oral dose; assay type: in vivo; settings: Rattus norvegicus, single dose 10 mg/kg PO, ~2 hrs post-dosing, isoflurane-anesthetized
Method: Example 2. Echocardiogram Data
Experiments were performed to evaluate the in vivo ability of the compounds of the disclosure to modulate systolic cardiac performance. Non-invasively echocardiography was used to assess cardiac indicators in isoflurane-anesthetized SD rats. A set of conscious rats were treated with either vehicle control (0 mg/kg PO; n=78) or a single dose of a test compound (10 mg/kg PO, n=2 to 6/compound) via oral gavage. Cardiac function/geometry were recorded at two separate time-points/days: once prior to dosing (e.g., at baseline, day −2) and at ˜2 hrs post-dosing (day 0). In these experiments, heart rate (HR), echocardiography-derived indices of left-ventricular systolic performance, as well as dimensions/volumes were measured using a high-frequency transducer and parasternal long-axis transthoracic views (Vevo3100, VisualSonic). LV fractional shortening (FS), an index of systolic function, was defined as the end-diastole normalized change in internal dimensions divided by the difference in diameter (LVid) of the left ventricle between end-systole (LVids) and end-diastole (LVidd) (e.g., FS=100·[LVidd−LVids]/LVidd). LV volumes were derived using the Teichholz formula (LVV=[7·LVid^3]/[2.4+LVid]). In addition, a systolic wall-thickening index (SWT) was also evaluated. SWT is defined as the relative ratio (end-diastole normalized) of left-ventricular (anterior and posterior) wall-thickness change during systole; e.g., SWT={[(anterior LV wall thickness in systole−anterior LV wall thickness in diastole)]+[(posterior LV wall thickness in systole−posterior LV wall thickness in diastole)]}/{2*diastolic thickness}. In all cases, blood samples were taken (via either tail-vein micro-sampling or cardiac-puncture) at the time of each echocardiographic examination in order to establish pharmacokinetic (PK)/pharmacodynamics (PD) relationships.

[4] = tested on: Porcine atria myofibrils (atrial myosin ATPase); assay: Myofibril ATPase assay, porcine atria myofibrils; assay type: biochemical; settings: Y75 value (no ‡ mark); porcine atria myofibrils
In short: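 Values are Y75 (concentration cutting ATPase activity to 75% of vehicle) or Y125 (raising it to 125%), taken from 4-parameter logistic fits. Rates come from NADH disappearance at 340 nm in a PK/LDH-coupled assay with porcine atria myofibrils.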

[5] = EDV change vs vehicle, read-out: EDV % vs. VEH
[6] = LV fractional shortening change vs vehicle, read-out: FS % vs. VEH
[7] = SWT change vs vehicle, read-out: SWT % vs. VEH
[8] = heart rate change vs vehicle, read-out: HR % vs. VEH

| Ventricular EC25 [1] [µM] | Skeletal EC25 [2] [µM] | Atrial EC25 [4] [µM] | SMILES | change in vivo at 10 mg/kg [3, 5] [%] | change in vivo at 10 mg/kg [3, 6] [%] | change in vivo at 10 mg/kg [3, 7] [%] | change in vivo at 10 mg/kg [3, 8] [%] |
| --- | --- | --- | --- | --- | --- | --- | --- |
| 0.24 | 0.14 | 0.23 | Cc1c(CC(=O)N[C@H](C)c2ncc(C#N)cc2F)c(=O)[nH]c2ccc(F)c(C3CC3)c12 [compound 27] | 11 to 20 | 11 to 20 | ≥ 21 | 1 to 20 |
| 2.62 | 2.93 | 1.07 | C[C@@H](NC(=O)Cc1cc2c(F)c(F)ccc2[nH]c1=O)c1ncc(C#N)cn1 (single isomer, unassigned) [compound 2071] | 1 to 20 | 1 to 20 | 11 to 20 | 1 to 20 |
| 0.05 | 0.01 | 0.02 | C[C@H](NC(=O)Cc1cc2c(F)c(F)ccc2[nH]c1=O)c1ncc(C#N)cc1F [compound 36] | 1 to 10 | 41 to 60 | 21 to 40 | 11 to 20 |
